Test results from patent publication US11000568B2, “Means and methods for treating copper-related diseases” (HELMHOLTZ ZENTRUM MÜNCHEN—DEUTSCHES FORSCHUNGSZENTRUM FÜR …, priority 2015, dated 2021).
“Also recorded” adds a separate entry of the source. Where a name gives a salt, the structure may show the parent alone.

Legend:
LPP−/− mitochondria = assay: Chelator treatment of freshly isolated copper burdened LPP−/− mitochondria (copper extraction); set-up: species or system rat; settings: 30 min incubation
LEC rats = settings: 100 mg/kg bw/d via drinking water, long-term; cited from earlier work
LPP−/− livers = assay: Two hour LPP−/− liver perfusion; set-up: species or system rat; settings: MB 0.7 μM, TTM 0.8 μM, D-PA 2.2 μM, TETA 1.8 μM
Method: LPP−/− livers (animal age 79-83 days) were perfused in a single pass manner with Krebs-Ringer bicarbonate solution containing 5 mM glucose (Beuers et al., J Biol Chem 278, 17810-17818 (2003)). The medium was gassed with 95% O2/5% CO2 and kept at 37° C. Rat livers were perfused via the portal vein (Beuers et al., log. cit.), the right lateral liver lobe was ligated and its copper content served as pre-perfusion control (Beuers et al., Hepatology 33, 1206-1216 (2001)). After cannulation of the bile duct a 20 min sample of bile was collected before the copper chelators were continuously added to the perfusion medium. Bile and outflow perfusate were collected in 10 min intervals as described elsewhere (Beuers et al., log. cit.). D-PA*HCl (20 mg/108 μmol), TETA*2HCl (20 mg/91 μmol), TTM*2NH4 (10 mg/38 μmol) and MB (40 mg/35 μmol) were each dissolved in 50 ml 0.9% NaCl, and continuously added to the perfusion medium via a perfusion pump (Perfusor, Braun, Melsungen) within 2 hours. The molar ratios of the chelators applied was MB 1:D-PA 3.1:TETA 2.6:TTM 1.1. LDH in the outflow perfusate was measured every ten minutes as described (Beuers et al., log. cit.). Control perfusions were done with Krebs-Ringer bicarbonate solution only.

LPP−/− rats = assay: Short-term in vivo treatment of LPP−/− rats; set-up: species or system rat; settings: MB i.p. 3 or 5 days; D-PA or TETA 4 days
Method: LPP rats were treated with MB either by daily i.p. injections for 3 or 5 consecutive days, or twice daily i.p. injections for 8 consecutive days at a dose of 150 mg/kg bw or 4 days via the drinking water with D-PA at a dose of 100 mg/kg bw/d or TETA at 480 mg/kg bw/d, respectively (Togashi et al., Hepatology 15, 82-87 (1992)). Based on a mean copper content of 250 μg/g w.w. in Atp7b−/− rat livers at the age of treatment start (Zischka et al., log. cit.), a LPP−/− rat liver of 8 g w.w. contains around 31.5 μmol copper. Single MB doses were chosen equimolar to this copper amount. […] Assuming 40 ml water intake per day for a rat weighing 250 g this translates to a dose of 480 mg/kg bw/d. With respect to the mean liver copper content in LPP−/− rats aged 85 days, the molar ratios of the chelators applied was MB 1:D-PA 4.3:TETA 17.4, respectively. For the intravenous MB application (150 mg/kg bw), catheters connected to a PinPort™ (Instech Laboratories, Inc., USA) were inserted in the femoral vein of the rat, fixed with non-absorbable sutures and subcutaneously tunneled and exteriorized through a skin incision made between the shoulders.
Formalin-fixed, paraffin-embedded liver samples were cut into 4 μm-thick sections and either stained with hematoxylin and eosin for standard analyses or with Masson trichrome for analysis of fibrotic tissue. AST activity and bilirubin concentration in animal plasma or serum were measured with a Reflotron system (Roche).
Copper in liver homogenates, cell lysates and mitochondrial preparations were analyzed by ICP-OES (Ciros Vision, SPECTRO Analytical Instruments GmbH) after wet ashing of samples with 65% nitric acid (Zischka et al., log. cit.).
The efficiency of a short-term MB treatment schedule was assessed in LPP−/− rats at the age of liver disease onset (85-90 days). Animals received MB (i.p.) either for 3 or 5 days or the clinically used copper chelators D-PA or TETA, which were orally administered for 4-days.

Molecule | mitochondrial copper (LPP−/− rats) | serum AST levels (LPP−/− rats) | whole liver copper (LPP−/− rats) | also measured
CC(NC(=O)C(C)NC(=S)C1N=C(C(NC(=O)C(CO)NC(=O)C(C)NC(=S)C2N=C(C(=O)CCCNC(=N)N)NC2=O)C(C)OS(=O)(=O)O)OC1=O)C(=O)O (centres unmarked) [mb-SB2] | – | – | – | copper depletion from LPP−/− mitochondria (LPP−/− mitochondria; 1 mM, mitochondria from three LPP−/− rats, vs buffer treated control): depletes copper at least as effective as another MB peptide mb-OB3b; also recorded: decreased at least as effective as the MB peptide mb-OB3b
tetrathiomolybdate*2 NH4 [TTM] | – | – | – | copper associated with LPP−/− mitochondria (LPP−/− mitochondria; 2 mM each): rapidly decreased copper
CC(C)(S)[C@@H](N)C(=O)O.Cl [D-PA, D-penicillamine*HCl, reference compound] | No copper reduction | unable to avoid the increase of serum AST levels | No copper reduction | onset of hepatitis (LEC rats): successfully prevent the onset of hepatitis; copper released into bile (LPP−/− livers): did not provoke any detectable release of copper into the bile; also recorded: did not bring copper into bile
NCCNCCNCCN [TETA, trientine*2 HCl, reference compound] | No copper reduction | unable to avoid the increase of serum AST levels | No copper reduction | copper released into bile (LPP−/− livers; HCl): did not provoke any detectable release of copper into the bile; also recorded: did not bring copper into bile
